Data published in ChEMBL document CHEMBL5604062, “ASAP - ZIKV NS2B-NS3 protease fluorescence dose response” (2024).
Values joined by “and” are separate entries in the source; they are usually repeats but may differ in a detail not shown here. Identical values can stand only once.

biological target: Nonstructural protein 3 (Zika virus, UniProt A0A024AXB9); experiment: Functional biochemical assay to identify treatments for viral infectious disease that targets Zika NS2B-NS3 protease. Utilizing a direct enzyme activity measurement method, reading the fluorescence intensity is used to characterize the relative potency of inhibitors as IC50.; design: species or system PRVABC59
Sequence (A0A024AXB9 whole entry): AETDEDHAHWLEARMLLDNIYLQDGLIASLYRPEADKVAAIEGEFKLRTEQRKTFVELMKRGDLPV

IC50, 6.31 µM:
CNC(=O)[C@H](Nc1cc(Cl)cc(NC(=O)OCc2ccccc2)c1)c1cccc(CN)c1

IC50, 63 µM:
O=C(N[C@H]1[C@H]2CCCCC[C@H]2[C@H]1C(=O)Nc1cccc(-n2nn[nH]c2=O)c1)OCc1ccccc1

IC50, 0.612 µM:
CNC(=O)[C@H](Nc1cccc(CN)c1)c1cc(Cl)cc(NC(=O)OCc2ccccc2)c1

IC50, 39.9 µM:
Cc1c(C(=O)Nc2cc(CCCN)ccn2)cc(C2CC2)n1C

IC50, 24.7 µM:
CCc1cc(C(=O)Nc2cccc(-n3nn[nH]c3=O)c2)sc1-c1ccc(Cl)cc1

IC50, 26.8 µM:
NCc1ccc2c(c1)[C@H](N1CCCC1=O)C[C@H](c1cc(Cl)cc(NC(=O)OCc3ccccc3)c1)N2

IC50, 31.7 µM:
COC(=O)c1cc(CN)cc([C@@H]2C[C@H]2c2cc(Cl)cc(NC(=O)OCc3ccccc3)c2)c1

IC50, 5.75 µM:
N[C@H]1CCc2cc(NC(=O)c3cc(Cl)cc(NC(=O)OCc4ccccc4)c3)ccc21

IC50, 92.6 µM:
Cc1c(C(=O)Nc2ccc(CCN)cc2)cc(C2CC2)n1C

IC50, 79.1 µM:
CC[C@H](Cc1nn[nH]n1)c1ccc(N[C@H](C(=O)NC)c2cc(Cl)cc(NC(=O)OCc3ccccc3)c2)cc1

IC50, 17.7 µM:
NCc1cccc(N[C@H](C#CCO)c2cc(Cl)cc(NC(=O)OCc3ccccc3)c2)c1

IC50, 18.7 µM:
N#Cc1ccc(CN)cc1NC(=O)c1cc(Cl)cc(NC(=O)OCc2ccccc2)c1

IC50, 10.7 µM:
N#Cc1cc(CN)cc(NC(=O)c2cc(Cl)cc(NC(=O)OCc3ccccc3)c2)c1

IC50, 52.4 µM:
CC[C@H](Cc1nnn[nH]1)c1ccc(NC(=O)[C@H]2[C@H]3CCCCC[C@H]3[C@H]2NC(=O)OCc2ccccc2)cc1

IC50, 6.91 µM:
NCc1ccc2c(c1)[C@H]1OCCC[C@H]1[C@H](c1cc(Cl)cc(NC(=O)OCc3ccccc3)c1)N2

IC50, > 99.5 µM:
O=C(Nc1cc(Cl)cc(C(=O)NCCc2nnn[nH]2)c1)OCc1ccccc1
Cc1c(C(=O)Nc2cccc(-n3nn[nH]c3=O)c2)cc(C2CC2)n1C
CC[C@H](Cc1nnn[nH]1)c1ccc(NC(=O)c2cc(Cl)cc(SC)c2)cc1
O=C(Nc1cccc(-c2nnn[nH]2)c1)c1cc(Cl)cc2[nH]ncc12
CCn1c(=O)c(N2CC[C@H](CO)C2)nc2ccc(C(=O)NS(C)(=O)=O)cc21
COCc1cc(Cl)cc(S(=O)(=O)Nc2cccc(-c3nnn[nH]3)c2)c1
O=S(=O)(Nc1cccc(-c2nnn[nH]2)c1)c1cc(Cl)cc(-c2ccccc2)c1
N#Cc1cc(Cl)cc(S(=O)(=O)Nc2cccc(-c3nnn[nH]3)c2)c1
CC(C)[C@@H]1C(=O)O[C@H]1C(=O)O
Cc1ccc(NC(=O)c2cc(C3CC3)n(C)c2C)cc1CN
CC[C@H](Cc1nnn[nH]1)c1ccc(NC(=O)c2cc(Cl)cc3[nH]ncc23)cc1
Nc1cccc(NC(=O)c2cc(Cl)cc(NC(=O)OCc3ccccc3)c2)c1
CCc1nc(C(=O)Nc2cccc(CN)c2)nn1-c1c(Cl)cccc1Cl
CC(C)c1nc2c(C(=O)Nc3cccc(-c4nnn[nH]4)c3)cccc2[nH]1
N#Cc1cc(Cl)cc(C(=O)Nc2cccc(-n3nn[nH]c3=O)c2)c1
O=S(=O)(Nc1cccc(-c2nnn[nH]2)c1)c1cc(Cl)cc2c1OCC2
Cn1nnnc1-c1cccc(NC(=O)c2cc(Cl)cc(NC(=O)OCc3ccccc3)c2)c1
O=C1Cc2cc(NC(=O)c3cc(Cl)cc(NC(=O)OCc4ccccc4)c3)ccc2N1
Nc1nc2ccc(NC(=O)c3cc(Cl)cc(NC(=O)OCc4ccccc4)c3)cc2[nH]1
CCNC(=O)Nc1cc(Cl)cc(C(=O)Nc2ccc([C@H](CC)Cc3nnn[nH]3)cc2)c1
CNC(=O)[C@H](Nc1cccc(N)n1)c1cc(Cl)cc(CNC(=O)OC(C)(C)C)c1
Nc1cccc(NC(=O)c2cc(Cl)cc(NC(=O)OCc3ccccc3)c2)n1
O=S(=O)(Nc1cccc(-c2nnn[nH]2)c1)c1cc(Cl)cc(C(F)(F)F)c1
O=C(Nc1cc(Cl)cc(C(=O)NCCCc2nnn[nH]2)c1)OCc1ccccc1
O=C(Nc1cc(Cl)cc(C(=O)NC2(c3nn[nH]n3)CCCC2)c1)OCc1ccccc1
CC(C)[C@H](NC(=O)c1cc(Cl)cc(NC(=O)OCc2ccccc2)c1)c1nn[nH]n1
CC[C@H](Cc1nnn[nH]1)c1ccc(NC(=O)c2cc(Cl)cc(C#N)c2)cc1
Cc1cc(CN)cc(NC(=O)c2cc(C3CC3)n(C)c2C)c1
Cc1c(C(=O)Nc2cccc([C@@H](C)N)c2)cc(C2CC2)n1C
N#Cc1cc(Cl)cc(C(=O)Nc2cccc(-c3nnn[nH]3)c2)c1
O=C(Nc1cccc(-n2nn[nH]c2=O)c1)c1cc(Cl)cc2c1CCC2
O=C(Nc1cccc(-c2nnn[nH]2)c1)c1cc(Cl)cc(C2CC2)c1
CCNC(=O)Nc1cc(Cl)cc(C(=O)Nc2cccc(-c3nn[nH]n3)c2)c1
O=C(Nc1cc(Cl)cc(C(=O)N[C@]2(c3nnn[nH]3)CCOC2)c1)OCc1ccccc1
NCc1cc(Cl)cc(C(=O)Nc2cccc(-c3nn[nH]n3)c2)c1
O=C(Nc1cc(Cl)cc(C(=O)N[C@H](c2nn[nH]n2)C2CNC2)c1)OCc1ccccc1
Cn1nc(C(=O)Nc2cccc(CN)c2)c2c1CCS(=O)(=O)C2
O=S(=O)(Nc1cccc(-c2nnn[nH]2)c1)c1cc(F)cc(Cl)c1
O=C(Nc1cccc(-n2nn[nH]c2=O)c1)c1cc(Cl)cc(N2CCCC2=O)c1
CCOC(=O)c1[nH]c(C)c(C(=O)Nc2cccc(CN)c2)c1CC
CC[C@H](Cc1nnn[nH]1)c1ccc(NC(=O)c2cc(Cl)cc3c2CCC3)cc1
Cc1c(C(=O)Nc2ccc3c(c2)CNCCO3)cc(C2CC2)n1C
O=C(Nc1cc(Cl)cc(C(=O)Nc2ccc3c(c2)C(=O)NC3)c1)OCc1ccccc1
CC[C@H](Cc1nnn[nH]1)c1ccc(NC(=O)c2cc(Cl)cc(C3CC3)c2)cc1
Cc1c(C(=O)Nc2cccc(C3CCNCC3)c2)cc(C2CC2)n1C
CC(C)[C@H]1C(=O)O[C@@H]1C(=O)O
O=C(Nc1cc(Cl)cc(C(=O)Nc2ccc3c(c2)CNC3=O)c1)OCc1ccccc1
Cc1c(C(=O)Nc2n[nH]c3c2CNC3)cc(C2CC2)n1C
CC[C@H](Cc1nnn[nH]1)c1ccc(NC(=O)c2cc(Cl)cc(Cl)c2OC)cc1
CCNC(=O)Nc1cc(Cl)cc(C(=O)O)c1

IC50, 47.5 µM:
COC(=O)c1cc(Cl)cc([C@@H]2CN(Cc3ccccc3)C[C@H]2c2cccc(CN)c2)c1

IC50, 9.61 µM:
COC(=O)c1cc(NC(=O)c2cc(Cl)cc(NC(=O)OCc3ccccc3)c2)cc(-c2nnn[nH]2)c1

IC50, 7.24 µM:
O=C(Nc1cc(Cl)cc(C(=O)Nc2cc(Br)cc(-c3nnn[nH]3)c2)c1)OCc1ccccc1

IC50, 25.3 µM:
C=CC[C@H](Nc1cccc(CN)n1)c1cc(Cl)cc(NC(=O)OCc2ccccc2)c1

IC50, 58.7 µM:
Cc1ccc(-c2nnn[nH]2)cc1NC(=O)c1cc(Cl)cc(NC(=O)OCc2ccccc2)c1

IC50, 11.8 µM and 16.7 µM:
CCc1cc(C(=O)Nc2cccc(-c3nnn[nH]3)c2)sc1-c1ccc(Cl)cc1

IC50, 7.51 µM:
O=C(Nc1cc(Cl)cc(C(=O)Nc2ccc([C@H]3CCCNC3)cc2)c1)OCc1ccccc1
